By inhibition is commonly meant the percentage by which the read-out fell short of the control.

One test deals with Glutamate NMDA receptor; GRIN1/GRIN2A (Homo sapiens) (UniProt Q05586+Q12879). Briefly: Blockade of human recombinant NR1/NR2A expressed in xenopus oocytes assessed as inhibition of L-glutamate/glycine-induced whole-cell current at 10 uM at holding potential of -60 mV by electrophysiological assay relative to control. The format is cell-based. Particulars: Oocyte.
For `CC(=O)N[C@@H](CCCN=C(N)N)C(=O)N[C@@H](Cc1c(Sc2ccccc2[N+](=O)[O-])[nH]c2ccccc12)C(N)=O`, the inhibition came to 25.8%.

For `NC(=O)[C@H](Cc1c(Sc2ccccc2[N+](=O)[O-])[nH]c2ccccc12)N1C(=O)N[C@@H](CCCCN=C(N2CCCC2)N2CCCC2)C1=O`, the inhibition turned out to be 10.7%.

With `CC(=O)N[C@@H](CCCCN=C(N1CCCC1)N1CCCC1)C(=O)N[C@@H](Cc1c(Sc2ncccc2[N+](=O)[O-])[nH]c2ccccc12)C(N)=O`, the inhibition was 30.2%.

For `NC(=O)[C@H](Cc1c(Sc2ccccc2[N+](=O)[O-])[nH]c2ccccc12)N1C(=O)N[C@@H](CN=C(N2CCCC2)N2CCCC2)C1=O`, the inhibition is 43.7%.

Regarding `CC(=O)N[C@@H](CCCN=C(N)N)C(=O)N[C@@H](Cc1c(Sc2ncccc2[N+](=O)[O-])[nH]c2ccccc12)C(N)=O`, the inhibition worked out at 26.3%.

As for `CC(=O)N[C@@H](CCN)C(=O)N[C@@H](Cc1c(Sc2ccccc2[N+](=O)[O-])[nH]c2ccccc12)C(N)=O`, the inhibition turned out to be 27.2%.

Consider `NC(=O)[C@H](Cc1c(Sc2ccccc2[N+](=O)[O-])[nH]c2ccccc12)NC(=O)[C@@H](N)CCCN=C(N)N`, for which the inhibition worked out at 7.7%.

In the case of `NC(=O)[C@H](Cc1c(Sc2ccccc2[N+](=O)[O-])[nH]c2ccccc12)NC(=O)[C@H](CCCCN=C(N1CCCC1)N1CCCC1)N=C(N1CCCC1)N1CCCC1`, the inhibition is 6.8%.

With `NC(=O)[C@H](Cc1c(Sc2ncccc2[N+](=O)[O-])[nH]c2ccccc12)N1C(=O)N[C@@H](CCCCN=C(N2CCCC2)N2CCCC2)C1=O`, the inhibition came out at 12.9%.

For the compound `CN(C)C(=NCCCC[C@H](N)C(=O)N[C@@H](Cc1c(Sc2ccccc2[N+](=O)[O-])[nH]c2ccccc12)C(N)=O)N(C)C`, the inhibition came out at 69.7%.

For `NCCCC[C@@H]1NC(=O)N([C@@H](Cc2c(Sc3ccccc3[N+](=O)[O-])[nH]c3ccccc23)C(N)=O)C1=O`, the inhibition amounted to 10.5%.

`NC(=O)[C@H](Cc1c(Sc2ccccc2[N+](=O)[O-])[nH]c2ccccc12)NC(=O)[C@@H](N)CCN=C(N1CCCC1)N1CCCC1`: the inhibition is 13.9%.

`CN(C)C(=NCCCC[C@@H]1NC(=O)N([C@@H](Cc2c(Sc3ccccc3[N+](=O)[O-])[nH]c3ccccc23)C(N)=O)C1=O)N(C)C`: the inhibition worked out at 9.3%.

Consider `CC(=O)N[C@@H](CCCCN=C(N(C)C)N(C)C)C(=O)N[C@@H](Cc1c(Sc2ncccc2[N+](=O)[O-])[nH]c2ccccc12)C(N)=O`, for which the inhibition was determined as 20.6%.

Regarding `NC[C@H](N)C(=O)N[C@@H](Cc1c(Sc2ccccc2[N+](=O)[O-])[nH]c2ccccc12)C(N)=O`, the inhibition was 24%.

Turning to `CC(=O)N[C@@H](CCCCN=C(N(C)C)N(C)C)C(=O)N[C@@H](Cc1c(Sc2ccccc2[N+](=O)[O-])[nH]c2ccccc12)C(N)=O`, the inhibition is 6.1%.

As to `CC(=O)N[C@@H](CN)C(=O)N[C@@H](Cc1c(Sc2ccccc2[N+](=O)[O-])[nH]c2ccccc12)C(N)=O`, the inhibition is 27%.

For `NC(=O)[C@H](Cc1c(Sc2ccccc2[N+](=O)[O-])[nH]c2ccccc12)NC(=O)[C@@H](N)CCCCN=C(N1CCCC1)N1CCCC1`, the inhibition was determined as 8.3%.

For `CC(=O)N[C@@H](CCCC[N+](C)(C)C)C(=O)N[C@@H](Cc1c(Sc2ccccc2[N+](=O)[O-])[nH]c2ccccc12)C(N)=O`, the inhibition worked out at 32.2%.

The target in a further test is Transient receptor potential cation channel subfamily V member 1 (Rattus norvegicus) (UniProt O35433). The test is described as follows: Blockade of rat recombinant TRPV1 expressed in xenopus oocytes assessed as inhibition of capsaicin-induced whole-cell current at 1 uM at holding potential of -60 mV by electrophysiological assay relative to control. The settings on record: Oocyte. The format is cell-based.
Sequence of Transient receptor potential cation channel subfamily V member 1 (Rattus norvegicus) (O35433 whole entry): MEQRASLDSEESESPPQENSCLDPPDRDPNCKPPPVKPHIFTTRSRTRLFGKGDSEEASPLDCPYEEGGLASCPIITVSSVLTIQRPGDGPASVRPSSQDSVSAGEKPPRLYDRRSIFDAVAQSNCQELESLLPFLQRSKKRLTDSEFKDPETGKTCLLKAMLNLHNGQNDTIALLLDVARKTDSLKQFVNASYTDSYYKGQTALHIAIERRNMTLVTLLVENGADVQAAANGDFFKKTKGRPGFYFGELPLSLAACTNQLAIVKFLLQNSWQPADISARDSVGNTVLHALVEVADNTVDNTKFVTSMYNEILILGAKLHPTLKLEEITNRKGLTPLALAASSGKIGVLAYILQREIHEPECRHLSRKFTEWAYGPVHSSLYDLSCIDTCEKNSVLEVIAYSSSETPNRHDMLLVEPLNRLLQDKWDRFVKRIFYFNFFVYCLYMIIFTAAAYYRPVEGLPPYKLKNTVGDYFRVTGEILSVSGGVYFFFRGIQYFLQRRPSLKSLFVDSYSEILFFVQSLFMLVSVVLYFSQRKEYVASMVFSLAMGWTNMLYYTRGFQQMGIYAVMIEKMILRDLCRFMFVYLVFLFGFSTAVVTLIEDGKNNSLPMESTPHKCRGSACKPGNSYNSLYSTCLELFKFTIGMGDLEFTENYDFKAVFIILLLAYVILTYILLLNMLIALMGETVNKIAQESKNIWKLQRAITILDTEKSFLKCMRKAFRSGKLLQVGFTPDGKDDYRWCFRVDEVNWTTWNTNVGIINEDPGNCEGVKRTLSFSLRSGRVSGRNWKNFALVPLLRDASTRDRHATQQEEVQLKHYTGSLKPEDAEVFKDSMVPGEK
Turning to `NC(=O)[C@H](Cc1c(Sc2ccccc2[N+](=O)[O-])[nH]c2ccccc12)NC(=O)[C@@H](N)CCCN=C(N)N`, the inhibition stood at 18.7%.

With `NC(=O)[C@H](Cc1c(Sc2ccccc2[N+](=O)[O-])[nH]c2ccccc12)NC(=O)[C@H](CCCCN=C(N1CCCC1)N1CCCC1)N=C(N1CCCC1)N1CCCC1`, the inhibition was 27.3%.

Consider `CN(C)C(=NCCCC[C@H](N)C(=O)N[C@@H](Cc1c(Sc2ccccc2[N+](=O)[O-])[nH]c2ccccc12)C(N)=O)N(C)C`, for which the inhibition is 21.1%.

Regarding `NC(=O)[C@H](Cc1c(Sc2ccccc2[N+](=O)[O-])[nH]c2ccccc12)NC(=O)[C@@H](N)CCN=C(N1CCCC1)N1CCCC1`, the inhibition was found to be 23.5%.

A further test shares this target. The test is described as follows: Blockade of rat recombinant TRPV1 expressed in xenopus oocytes assessed as inhibition of capsaicin-induced whole-cell current at 10 uM at holding potential of -60 mV by electrophysiological assay relative to control. The settings on record: Oocyte. The format is cell-based.
`CC(=O)N[C@@H](CCCN=C(N)N)C(=O)N[C@@H](Cc1c(Sc2ccccc2[N+](=O)[O-])[nH]c2ccccc12)C(N)=O`: the inhibition was 29.2%.

`NC(=O)[C@H](Cc1c(Sc2ccccc2[N+](=O)[O-])[nH]c2ccccc12)N1C(=O)N[C@@H](CCCCN=C(N2CCCC2)N2CCCC2)C1=O`: the inhibition turned out to be 60.4%.

For the compound `CC(=O)N[C@@H](CCCCN=C(N1CCCC1)N1CCCC1)C(=O)N[C@@H](Cc1c(Sc2ncccc2[N+](=O)[O-])[nH]c2ccccc12)C(N)=O`, the inhibition was 16.6%.

Regarding `NC(=O)[C@H](Cc1c(Sc2ccccc2[N+](=O)[O-])[nH]c2ccccc12)N1C(=O)N[C@@H](CN=C(N2CCCC2)N2CCCC2)C1=O`, the inhibition turned out to be 51.3%.

`CC(=O)N[C@@H](CCCN=C(N)N)C(=O)N[C@@H](Cc1c(Sc2ncccc2[N+](=O)[O-])[nH]c2ccccc12)C(N)=O`: the inhibition stood at 23.9%.

With `CC(=O)N[C@@H](CCN)C(=O)N[C@@H](Cc1c(Sc2ccccc2[N+](=O)[O-])[nH]c2ccccc12)C(N)=O`, the inhibition was 27.6%.

For the compound `NC(=O)[C@H](Cc1c(Sc2ccccc2[N+](=O)[O-])[nH]c2ccccc12)NC(=O)[C@@H](N)CCCN=C(N)N`, the inhibition is 62.8%.

Regarding `NC(=O)[C@H](Cc1c(Sc2ccccc2[N+](=O)[O-])[nH]c2ccccc12)NC(=O)[C@H](CCCCN=C(N1CCCC1)N1CCCC1)N=C(N1CCCC1)N1CCCC1`, the inhibition was determined as 97.2%.

Consider `NC(=O)[C@H](Cc1c(Sc2ncccc2[N+](=O)[O-])[nH]c2ccccc12)N1C(=O)N[C@@H](CCCCN=C(N2CCCC2)N2CCCC2)C1=O`, for which the inhibition stood at 52.5%.

For `CN(C)C(=NCCCC[C@H](N)C(=O)N[C@@H](Cc1c(Sc2ccccc2[N+](=O)[O-])[nH]c2ccccc12)C(N)=O)N(C)C`, the inhibition came to 49.7%.

For the compound `NCCCC[C@@H]1NC(=O)N([C@@H](Cc2c(Sc3ccccc3[N+](=O)[O-])[nH]c3ccccc23)C(N)=O)C1=O`, the inhibition was determined as 15.4%.

`NC(=O)[C@H](Cc1c(Sc2ccccc2[N+](=O)[O-])[nH]c2ccccc12)NC(=O)[C@@H](N)CCN=C(N1CCCC1)N1CCCC1`: the inhibition amounted to 76.1%.

Consider `CN(C)C(=NCCCC[C@@H]1NC(=O)N([C@@H](Cc2c(Sc3ccccc3[N+](=O)[O-])[nH]c3ccccc23)C(N)=O)C1=O)N(C)C`, for which the inhibition amounted to 13%.

Take `CC(=O)N[C@@H](CCCCN=C(N(C)C)N(C)C)C(=O)N[C@@H](Cc1c(Sc2ncccc2[N+](=O)[O-])[nH]c2ccccc12)C(N)=O`: the inhibition amounted to 12%.

Take `NC[C@H](N)C(=O)N[C@@H](Cc1c(Sc2ccccc2[N+](=O)[O-])[nH]c2ccccc12)C(N)=O`: the inhibition amounted to 39.3%.

Take `CC(=O)N[C@@H](CCCCN=C(N(C)C)N(C)C)C(=O)N[C@@H](Cc1c(Sc2ccccc2[N+](=O)[O-])[nH]c2ccccc12)C(N)=O`: the inhibition was found to be 19.9%.

As for `CC(=O)N[C@@H](CN)C(=O)N[C@@H](Cc1c(Sc2ccccc2[N+](=O)[O-])[nH]c2ccccc12)C(N)=O`, the inhibition was 14.6%.

For `NC(=O)[C@H](Cc1c(Sc2ccccc2[N+](=O)[O-])[nH]c2ccccc12)NC(=O)[C@@H](N)CCCCN=C(N1CCCC1)N1CCCC1`, the inhibition is 55.8%.

Regarding `CC(=O)N[C@@H](CCCC[N+](C)(C)C)C(=O)N[C@@H](Cc1c(Sc2ccccc2[N+](=O)[O-])[nH]c2ccccc12)C(N)=O`, the inhibition came to 29%.

The record behind these values is ChEMBL document CHEMBL1777688, “TRPV1 modulators: structure-activity relationships using a rational combinatorial approach” (Bioorg Med Chem Lett, 2011).
